Data from paper PMC7600264, “Quasi-Irreversible Inhibition of CYP2D6 by Berberine” (Pharmaceutics, 2020).
Like-named read-outs stand apart in the source and are kept apart here. One block for each molecule: values may come before it.

Key:
[1] = target: T1, CYP2B6 (Homo sapiens, UniProt P20813); assay: Direct CYP inhibition assay using pooled HLM; settings: pooled HLM
T1 sequence (P20813 1-491): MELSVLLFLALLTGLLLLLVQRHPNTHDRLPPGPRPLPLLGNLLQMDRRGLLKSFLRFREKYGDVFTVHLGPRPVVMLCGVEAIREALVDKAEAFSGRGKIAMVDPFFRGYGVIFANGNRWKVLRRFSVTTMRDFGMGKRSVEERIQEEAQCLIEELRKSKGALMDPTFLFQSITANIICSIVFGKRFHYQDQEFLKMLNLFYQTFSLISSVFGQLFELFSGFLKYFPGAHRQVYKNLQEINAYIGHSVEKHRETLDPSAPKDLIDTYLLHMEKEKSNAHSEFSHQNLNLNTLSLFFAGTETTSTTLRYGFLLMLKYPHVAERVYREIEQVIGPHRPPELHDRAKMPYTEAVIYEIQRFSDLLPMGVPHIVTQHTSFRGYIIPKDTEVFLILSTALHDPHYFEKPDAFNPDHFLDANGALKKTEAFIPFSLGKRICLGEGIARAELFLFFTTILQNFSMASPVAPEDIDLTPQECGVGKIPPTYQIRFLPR
Protocol: (§1) The enzyme reactions were initiated by adding NADPH (1 mM), and the mixtures were incubated at 37 °C for 5 min in a shaking water bath (100 rpm). The reaction was terminated by adding ice-cold acetonitrile (ACN) containing CBZ (100 nM) and 4-methyl-umbelliferone (300 nM) as internal standards (IS).
(§2) The chromatographic separation was performed on an Agilent 1200 series HPLC system (Agilent Technologies, Santa Clara, CA, USA) equipped with an Atlantis^TM dC18 column (2.1 × 50 mm, 3 µm; Waters Corporation, Milford, MA, USA) with a SecuityGuard^TM C18 guard column (2.0 × 4.0 mm; Phenomenex, Torrance, CA, USA). The mobile phases consisted of double-deionized water (DDW) containing 0.1% (v/v) of formic acid (A) and ACN containing 0.1% (v/v) formic acid (B). […] The sample injection volume was 10 µL, and the total run time was 9.0 min. The column and auto-sampler compartments were maintained at 30 °C and 10 °C, respectively, throughout the analysis. The detection was performed using an API4000 Q-TRAP system equipped with a Turbo V Ion Spray^TM source (Applied Biosystems, Foster City, CA, USA). The operating conditions were optimized as follows: ionization voltage: 5500 V for positive-ion mode and −4500 V for negative-ion mode; ion source temperature: 550 °C; nebulizing gas flow: 50 L/min; auxiliary gas flow: 40 L/min; and curtain gas flow: 30 L/min. The samples were analyzed via multiple reaction monitoring (MRM) mode. […] The data acquisition and processing were performed using Analyst^TM software (version 1.5.2; Applied Biosystems, Foster City, CA, USA).

[2] = target: CYP2C19 (Homo sapiens, UniProt P33261); assay: Direct CYP inhibition assay using pooled HLM; settings: pooled HLM
CYP2C19, sequence (P33261 whole entry): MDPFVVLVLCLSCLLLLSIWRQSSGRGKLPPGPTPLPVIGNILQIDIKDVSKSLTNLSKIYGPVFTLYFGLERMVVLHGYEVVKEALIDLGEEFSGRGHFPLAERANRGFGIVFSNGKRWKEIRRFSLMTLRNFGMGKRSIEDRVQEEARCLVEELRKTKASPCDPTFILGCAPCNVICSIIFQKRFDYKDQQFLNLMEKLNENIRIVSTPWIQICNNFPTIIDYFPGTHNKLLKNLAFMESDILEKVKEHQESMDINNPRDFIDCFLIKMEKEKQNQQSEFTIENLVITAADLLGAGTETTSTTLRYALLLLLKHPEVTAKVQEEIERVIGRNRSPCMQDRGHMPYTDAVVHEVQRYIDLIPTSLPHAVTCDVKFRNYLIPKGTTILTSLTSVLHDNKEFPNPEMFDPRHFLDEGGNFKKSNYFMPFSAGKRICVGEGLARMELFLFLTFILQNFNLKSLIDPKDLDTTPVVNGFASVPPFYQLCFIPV
Protocol: as §1, §2

[3] = target: T2, CYP2C8 (Homo sapiens, UniProt P10632); assay: Direct CYP inhibition assay using pooled HLM; settings: pooled HLM
T2 sequence (P10632 1-490): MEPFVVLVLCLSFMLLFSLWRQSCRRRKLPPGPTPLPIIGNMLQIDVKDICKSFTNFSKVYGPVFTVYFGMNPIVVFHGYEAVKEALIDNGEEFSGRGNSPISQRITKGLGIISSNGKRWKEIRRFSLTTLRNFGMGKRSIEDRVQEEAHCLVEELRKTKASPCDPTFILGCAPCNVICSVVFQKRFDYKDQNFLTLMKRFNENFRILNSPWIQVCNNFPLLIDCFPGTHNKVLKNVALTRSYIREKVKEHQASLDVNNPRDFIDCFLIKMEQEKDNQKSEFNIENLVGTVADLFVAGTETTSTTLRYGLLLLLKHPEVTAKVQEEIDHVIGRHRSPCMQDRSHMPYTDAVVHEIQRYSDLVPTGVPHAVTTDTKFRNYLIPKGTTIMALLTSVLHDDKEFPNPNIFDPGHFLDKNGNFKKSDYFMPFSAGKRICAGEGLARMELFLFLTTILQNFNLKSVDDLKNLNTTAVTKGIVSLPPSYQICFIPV
Protocol: as §1, §2

[4] = target: CYP2C9 (Homo sapiens, UniProt P11712); assay: Direct CYP inhibition assay using pooled HLM; settings: pooled HLM
CYP2C9, sequence (P11712 whole entry): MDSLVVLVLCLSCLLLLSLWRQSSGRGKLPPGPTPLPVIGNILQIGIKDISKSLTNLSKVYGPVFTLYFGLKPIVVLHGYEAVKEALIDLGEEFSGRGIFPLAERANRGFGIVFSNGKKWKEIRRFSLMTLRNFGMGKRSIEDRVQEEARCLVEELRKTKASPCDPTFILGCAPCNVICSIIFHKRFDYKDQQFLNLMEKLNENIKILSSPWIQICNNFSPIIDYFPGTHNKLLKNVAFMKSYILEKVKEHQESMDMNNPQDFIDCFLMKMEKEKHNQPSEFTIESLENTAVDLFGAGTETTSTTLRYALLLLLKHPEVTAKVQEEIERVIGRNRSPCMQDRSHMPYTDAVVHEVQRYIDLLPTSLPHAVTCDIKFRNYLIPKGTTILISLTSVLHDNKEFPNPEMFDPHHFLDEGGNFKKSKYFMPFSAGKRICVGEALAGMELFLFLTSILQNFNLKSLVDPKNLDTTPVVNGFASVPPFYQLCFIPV
Protocol: as §1, §2

[5] = target: CYP3A4 (Homo sapiens, UniProt P08684); assay: Direct CYP inhibition assay using pooled HLM
CYP3A4, sequence (P08684 whole entry): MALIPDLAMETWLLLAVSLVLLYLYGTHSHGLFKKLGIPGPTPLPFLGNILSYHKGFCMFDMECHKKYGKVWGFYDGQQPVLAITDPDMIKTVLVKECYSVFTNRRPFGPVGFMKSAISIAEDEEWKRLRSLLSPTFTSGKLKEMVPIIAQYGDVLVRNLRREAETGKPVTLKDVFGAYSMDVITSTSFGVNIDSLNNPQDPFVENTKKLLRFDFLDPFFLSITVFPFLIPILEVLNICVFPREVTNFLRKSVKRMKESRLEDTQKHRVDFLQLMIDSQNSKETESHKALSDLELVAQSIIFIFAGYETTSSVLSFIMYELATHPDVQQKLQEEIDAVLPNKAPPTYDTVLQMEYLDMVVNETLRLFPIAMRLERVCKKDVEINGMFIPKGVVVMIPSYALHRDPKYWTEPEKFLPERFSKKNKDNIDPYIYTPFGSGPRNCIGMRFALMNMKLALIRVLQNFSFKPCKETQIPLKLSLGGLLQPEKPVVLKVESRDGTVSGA
Protocol: as §1, §2

[6] = target: T3, CYP2D6 (Homo sapiens, UniProt P10635); settings: microsomes
T3 sequence (P10635 whole entry): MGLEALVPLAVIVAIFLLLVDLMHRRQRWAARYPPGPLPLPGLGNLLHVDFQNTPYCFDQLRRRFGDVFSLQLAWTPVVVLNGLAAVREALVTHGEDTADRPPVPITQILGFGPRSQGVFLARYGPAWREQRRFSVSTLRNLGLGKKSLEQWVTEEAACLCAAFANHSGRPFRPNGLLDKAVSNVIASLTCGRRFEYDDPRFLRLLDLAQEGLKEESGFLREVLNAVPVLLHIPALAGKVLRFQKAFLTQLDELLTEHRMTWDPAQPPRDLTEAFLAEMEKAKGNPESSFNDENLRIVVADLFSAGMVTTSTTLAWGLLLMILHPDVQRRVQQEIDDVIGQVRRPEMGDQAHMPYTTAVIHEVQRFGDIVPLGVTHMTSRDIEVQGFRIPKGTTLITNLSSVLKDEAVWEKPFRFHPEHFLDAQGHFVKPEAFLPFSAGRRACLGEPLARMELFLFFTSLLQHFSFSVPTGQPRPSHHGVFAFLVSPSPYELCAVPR
Protocol: BBR (0–16 μM) was incubated with pooled HLM (0.2 mg/mL), NADPH (1 mM), and dextromethorphan (5 µM) in phosphate buffer (0.1 M; pH 7.4) for various incubation time periods (0–30 min). The apparent inactivation rate constants (kobs) at various BBR concentrations were estimated by fitting first-order kinetics to the relative enzyme activity vs. incubation time profiles. The rate of enzyme inactivation (kinact) and the inhibition constant (KI) were determined by fitting the following Equation (1) to the kobs values at various inhibitor concentrations Equation (1) [31]:(1) 1/kobs=KI/kinact×1/I+1/kinact

[7] = Metabolic stability and metabolite formation of BBR in pooled HLM; settings: for Concentration in incubation mixture (elimination of BBR and formation of its metabolites): BBR 1 µM in pooled HLM with NADPH-generating system, mean ± SD
Protocol: To evaluate NADPH-dependent metabolism, BBR (1 µM) was incubated with pooled HLM (1 mg/mL) in the presence of the NADPH-regenerating system (1 mM of NADP^+, 5 mM of G6P, and 1 U/mL of G6PDH) to be a final volume of 200 µL. The reactions were quenched by adding the same volume of ice-cold ACN containing CBZ (100 nM) at 0, 7.5, 15, 30, 60, and 120 min of incubation. The incubation mixtures were centrifuged at 1000× g for 20 min at 4 °C, and the supernatants were analyzed by the LC-MS/MS system described in Section 2.2.
Meanwhile, to identify the known metabolites of BBR, an aliquot (5 µL) of the supernatant was injected into an accurate-MS system consisting of an Agilent 6530 Q-TOF LC/MS equipped with dual AJS ESI ion source (Agilent Technologies) and Agilent 1200 series HPLC system (Agilent Technologies). Chromatographic separations were performed on an Agilent Eclipse Plus C18 column (150 × 2.1 mm, 3.5 µm; Agilent Technologies) by gradient elution with a binary mobile phase consisting of DDW with 0.1% (v/v) formic acid (A) and ACN with 0.1% (v/v) formic acid (B) at a flow rate of 0.2 mL/min, where the mobile phase B was set as follows: 2% at 0 min, 20% at 15 min, and 30% at 20–25 min, followed by re-equilibration for 3 min.
In vitro metabolic stability parameters, including half-life (t1/2) and microsomal intrinsic clearance (CLint,mic), were determined according to our previous report [32]. The degradation t1/2 values of the microsomal stability studies were calculated using the following Equation (2):(2) t1/2=0.693/k, where k represents the first-order degradation rate constant. The k values were estimated by fitting a one-phase exponential decay model to the parent drug remaining (%) vs. incubation time plots using GraphPad Prism 5.0 (GraphPad Software Inc., San Diego, CA, USA).
The CLint,mic was determined using the in vitro half-life approach.

[8] = target: T4, CYP2A6 (Homo sapiens, UniProt P11509); assay: Direct CYP inhibition assay using pooled HLM; settings: pooled HLM
T4 sequence (P11509 1-494): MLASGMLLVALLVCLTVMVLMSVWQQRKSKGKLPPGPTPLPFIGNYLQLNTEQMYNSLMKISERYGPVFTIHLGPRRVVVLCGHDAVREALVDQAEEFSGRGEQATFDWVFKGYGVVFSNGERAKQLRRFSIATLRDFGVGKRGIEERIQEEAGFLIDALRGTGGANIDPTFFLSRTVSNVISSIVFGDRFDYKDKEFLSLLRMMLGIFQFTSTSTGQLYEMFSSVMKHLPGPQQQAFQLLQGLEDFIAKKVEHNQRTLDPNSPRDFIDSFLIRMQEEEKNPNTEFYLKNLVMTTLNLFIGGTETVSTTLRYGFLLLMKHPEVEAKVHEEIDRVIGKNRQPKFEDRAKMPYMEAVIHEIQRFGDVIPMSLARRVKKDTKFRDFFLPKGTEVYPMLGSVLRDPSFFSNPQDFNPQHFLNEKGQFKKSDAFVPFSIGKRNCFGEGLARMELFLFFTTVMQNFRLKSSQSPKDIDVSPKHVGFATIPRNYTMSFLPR
Protocol: as §1, §2

[9] = target: T3, CYP2D6; assay: Metabolism-dependent CYP2D6 inhibition assay (IC50 shift) using pooled HLM; settings: pooled HLM; for MDI (metabolism-dependent inhibition) of CYP2D6 (in words): pre-incubation with NADPH
Protocol: Pre-incubation was performed in pooled HLM (0.2 mg/mL) added with BBR, THB, TFD, or DMB, or rhCYP2D6 (10 pmol/mL) added with BBR, with or without NADPH (1 mM) in phosphate buffer (0.1 M; pH 7.4) for 30 min. Then, the CYP2D6 substrate (5 µM of dextromethorphan) and NADPH (1 mM) were added to the mixture and incubated for another 10 min. All incubations were carried out at 37 °C in a shaking water bath (100 rpm) using eight-well tube strips placed in an 8 × 12 rack, where the final volume of each reaction mixture was 200 µL. […] The enzyme reactions were quenched by adding an aliquot (200 µL) of ice-cold ACN containing CBZ (100 nM) as an IS. The samples were centrifuged, and the concentration of CYP2D6 metabolite (i.e., dextrorphan, produced by O-demethylation of dextromethorphan) in supernatants were analyzed using the LC-MS/MS method described in Section 2.2.

[10] = target: T5, CYP1A2 (Homo sapiens, UniProt P05177); assay: Direct CYP inhibition assay using pooled HLM; settings: pooled HLM
T5 sequence (P05177 1-516): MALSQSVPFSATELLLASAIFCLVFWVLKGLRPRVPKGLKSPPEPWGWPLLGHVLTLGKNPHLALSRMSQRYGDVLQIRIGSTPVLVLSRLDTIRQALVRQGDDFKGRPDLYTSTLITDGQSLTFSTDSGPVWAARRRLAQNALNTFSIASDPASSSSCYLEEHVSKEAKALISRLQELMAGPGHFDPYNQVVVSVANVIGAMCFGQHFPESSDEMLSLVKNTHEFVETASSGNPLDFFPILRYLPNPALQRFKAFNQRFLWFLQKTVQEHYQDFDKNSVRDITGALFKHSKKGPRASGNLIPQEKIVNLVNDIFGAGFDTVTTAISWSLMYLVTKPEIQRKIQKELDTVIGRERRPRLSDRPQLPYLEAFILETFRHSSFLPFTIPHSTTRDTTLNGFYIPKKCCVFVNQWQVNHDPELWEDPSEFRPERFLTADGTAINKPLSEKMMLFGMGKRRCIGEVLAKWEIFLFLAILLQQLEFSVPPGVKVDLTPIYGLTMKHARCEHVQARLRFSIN
Protocol: as §1, §2

[11] = target: CYP2E1 (Homo sapiens, UniProt P05181); assay: Direct CYP inhibition assay using pooled HLM; settings: pooled HLM
CYP2E1, sequence (P05181 whole entry): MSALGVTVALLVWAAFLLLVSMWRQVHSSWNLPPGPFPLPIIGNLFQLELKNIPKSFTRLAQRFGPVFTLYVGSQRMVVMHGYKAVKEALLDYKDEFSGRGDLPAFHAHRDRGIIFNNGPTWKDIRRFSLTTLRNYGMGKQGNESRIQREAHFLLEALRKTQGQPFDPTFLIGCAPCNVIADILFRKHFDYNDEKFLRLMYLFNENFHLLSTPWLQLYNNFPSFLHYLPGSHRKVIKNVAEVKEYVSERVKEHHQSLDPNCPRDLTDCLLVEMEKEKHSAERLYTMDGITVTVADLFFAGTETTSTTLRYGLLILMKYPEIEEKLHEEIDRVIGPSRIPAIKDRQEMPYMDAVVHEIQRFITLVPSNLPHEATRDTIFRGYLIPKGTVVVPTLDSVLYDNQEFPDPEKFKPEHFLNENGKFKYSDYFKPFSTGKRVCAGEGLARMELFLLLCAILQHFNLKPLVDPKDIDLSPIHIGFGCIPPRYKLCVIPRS
Protocol: as §1, §2

[12] = target: T3, CYP2D6; assay: Direct CYP inhibition assay using pooled HLM
Protocol: as §1, §2

[13] = human, pooled human liver microsomes

Compound: COc1ccc2cc3[n+](cc2c1OC)CCc1cc2c(cc1-3)OCO2 [BBR, berberine]
Inhibition of CYP2B6 (in words) ([1]; up to 100 µM): not markedly inhibited
Inhibition of CYP2C19 (in words) ([2]; up to 100 µM): not markedly inhibited
Inhibition of CYP2C8 (in words) ([3]; up to 100 µM): not markedly inhibited
Inhibition of CYP2C9 (in words) ([4]; up to 100 µM): not markedly inhibited
Inhibition of CYP3A4 (in words) ([5]; up to 100 µM, substrates MDZ and TST): not markedly inhibited
kinact/KI against CYP2D6 [6]: 97.2 M⁻¹ s⁻¹
Concentration in incubation mixture (elimination of BBR and formation of its metabolites) ([7]; 0 min): 1049 ± 16 nM
Concentration in incubation mixture (elimination of BBR and formation of its metabolites) ([7]; 7.5 min): 807 ± 11 nM
Concentration in incubation mixture (elimination of BBR and formation of its metabolites) ([7]; 15 min): 713 ± 12 nM
Concentration in incubation mixture (elimination of BBR and formation of its metabolites) ([7]; 30 min): 539 ± 4 nM
Concentration in incubation mixture (elimination of BBR and formation of its metabolites) ([7]; 60 min): 313 ± 15 nM
Concentration in incubation mixture (elimination of BBR and formation of its metabolites) ([7]; 120 min): 147 ± 5 nM
half-life at 1 µM [7, 13]: 35.4 min
microsomal CLint at 1 µM [7, 13]: 7.82 µL/min/mg
Metabolic stability in HLM (in words) ([7]; pooled HLM): moderately stable
Inhibition of CYP2A6 (in words) ([8]; up to 100 µM): not markedly inhibited
IC50 ([9]; IC50 against CYP2D6, pre-incubation with NADPH, 30 min pre-incubation with NADPH): 1.66 µM
IC50 ([9]; IC50 against CYP2D6, pre-incubation without NADPH, 30 min pre-incubation without NADPH): 12.4 µM
MDI (metabolism-dependent inhibition) of CYP2D6 (in words) [9]: exhibited MDI
Inhibition of CYP1A2 (in words) ([10]; up to 100 µM): not markedly inhibited
Inhibition of CYP2E1 (in words) ([11]; up to 100 µM): not markedly inhibited
IC50 [12]: 11.9 µM

IC50 ([1]; read-out: IC50 CYP2B6, direct inhibition, 95% confidence intervals in parentheses): > 100 µM
IC50 ([2]; read-out: IC50 CYP2C19, direct inhibition, 95% confidence intervals in parentheses): > 100 µM
IC50 ([3]; read-out: IC50 CYP2C8, direct inhibition, 95% confidence intervals in parentheses): > 100 µM
IC50 ([4]; read-out: IC50 CYP2C9, direct inhibition, 95% confidence intervals in parentheses): > 100 µM
IC50 ([5]; read-out: IC50 CYP3A4 (MDZ), direct inhibition, substrate MDZ, 95% confidence intervals in parentheses): 66 µM
IC50 ([5]; read-out: IC50 CYP3A4 (TST), direct inhibition, substrate TST, 95% confidence intervals in parentheses): 7.3 µM
Concentration in incubation mixture (elimination of BBR and formation of its metabolites) ([7]; 0 min): 6.1 ± 0.1 nM
Concentration in incubation mixture (elimination of BBR and formation of its metabolites) ([7]; 7.5 min): 24.1 ± 0.3 nM
Concentration in incubation mixture (elimination of BBR and formation of its metabolites) ([7]; 15 min): 38.1 ± 0.5 nM
Concentration in incubation mixture (elimination of BBR and formation of its metabolites) ([7]; 30 min): 52.6 ± 1.9 nM
Concentration in incubation mixture (elimination of BBR and formation of its metabolites) ([7]; 60 min): 64.3 ± 1.6 nM
Concentration in incubation mixture (elimination of BBR and formation of its metabolites) ([7]; 120 min): 75.0 ± 1.0 nM
IC50 ([8]; read-out: IC50 CYP2A6, direct inhibition, 95% confidence intervals in parentheses): > 100 µM
MDI (metabolism-dependent inhibition) of CYP2D6 (in words) [9]: not
IC50 ([9]; read-out: IC50 against CYP2D6, pre-incubation with NADPH, 30 min pre-incubation with NADPH): 54.9 µM
IC50 ([9]; read-out: IC50 against CYP2D6, pre-incubation without NADPH, 30 min pre-incubation without NADPH): 34.7 µM
IC50 ([10]; read-out: IC50 CYP1A2, direct inhibition, 95% confidence intervals in parentheses): > 100 µM
IC50 ([11]; read-out: IC50 CYP2E1, direct inhibition, 95% confidence intervals in parentheses): 7.7 µM
IC50 ([12]; read-out: IC50 CYP2D6, pooled HLM, direct inhibition, substrate dextromethorphan, 95% confidence intervals in parentheses): 32 µM
Compound: COc1ccc2cc3[n+](cc2c1OC)CCc1cc(O)c(O)cc1-3 [DMB, demethyleneberberine]
